Experimental data from patent US11613533B2, “Compounds useful for inhibiting RET kinase” (Eli Lilly and Company, priority 2020, dated 2023).

Columns and labels:
[1] = target: T1, G810S mutant RET kinase (N-Terminal GST-tagged recombinant human G810S, aa-658-end) (Homo sapiens, UniProt P07949, G810S); assay: RET enzyme assay (HTRF KinEASE TK), G810S; assay type: biochemical; conditions: 1 mM ATP, 60 min incubation at 22° C.
T1 construct: recombinant human G810S (aa-658-end); GST (N); made in house; host or cells: insect cells
T1 sequence (P07949 658-1114 G810S limits assumed): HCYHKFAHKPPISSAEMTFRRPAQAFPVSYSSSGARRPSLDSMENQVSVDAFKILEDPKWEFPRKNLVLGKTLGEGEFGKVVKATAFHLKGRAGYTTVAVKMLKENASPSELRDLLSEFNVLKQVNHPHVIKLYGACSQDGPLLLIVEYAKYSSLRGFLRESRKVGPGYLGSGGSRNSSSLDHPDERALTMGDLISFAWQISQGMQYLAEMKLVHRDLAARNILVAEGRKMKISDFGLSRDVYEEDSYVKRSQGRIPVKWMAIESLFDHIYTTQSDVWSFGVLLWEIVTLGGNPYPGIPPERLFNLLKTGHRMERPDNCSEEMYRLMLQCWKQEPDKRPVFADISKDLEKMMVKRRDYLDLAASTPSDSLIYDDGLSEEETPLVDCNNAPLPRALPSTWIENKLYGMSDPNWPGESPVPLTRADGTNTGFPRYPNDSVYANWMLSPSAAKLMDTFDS
Protocol: Assay A: RET Enzyme Assay
Compounds of formulas I, II, or III are screened for their ability to inhibit wildtype, V804M, and G810S mutant RET kinase using CisBio's HTRF® KinEASE™TK assay technology. N-terminal GST tagged recombinant human RET cytoplasmic domain (aa 658-end) from Eurofins ([…]; Catalog No. 14-570M) or N-terminal GST tagged recombinant human V804M mutant RET cytoplasmic domain (aa 658-end) from Millipore (1.25 nM enzyme; Catalog No. 14-760) or N-Terminal GST-tagged recombinant human G810S (aa-658-end) (1.25 nM Enzyme; produced in insect cells) is incubated with 62.5 nM TK-substrate biotin (CisBio, part of Catalog No. 62TK0PEC) and 1 mM ATP along with test compound (0.4% final DMSO in the assay) in a 1× Cisbio enzymatic buffer consisting of […], 5 mM MgCl2, 0.04% BSA and 0.05% Tween20 in a volume of 10 μL. Compounds are typically prepared in a threefold serial dilution in DMSO and added to the assay to give the appropriate final concentration. After a 40-60 min (40 min for V804M, 60 min for WT and G810S) incubation at 22° C., the reaction is quenched by adding quench solution (10 μL) containing 7.8 nM Streptavidine-XL665 and 0.5×TK-ab-Cryptate in HTRF detection buffer (all from CisBio, part of Cat. No. 62TK0PEC). After a 60-80 min incubation (60 minutes for WT, 80 minutes for V804M and G810S) at 22° C., the extent of reaction is determined using a PHERastar plate reader via HTRF detection at excitation/emission 337/665 nm. Percent of inhibition is calculated with 0% inhibition referring to control conditions containing no compound (0.4% DMSO only) and 100% inhibition represented by conditions containing no enzyme. The % inhibition values are fit to a 4 parameter logistic curve, and the determined IC50 value is defined as the estimated concentration of inhibitor at the inflexion point of the fitted curve.

[2] = target: T2, KIF5B-RET WT in HEK293 cells (Homo sapiens, UniProt P07949); assay: RET cell assay (In-Cell Western, phospho-RET Y1062), wildtype; assay type: cell-based; conditions: HEK293, doxycycline-induced KIF5B-RET WT, 1 hr compound treatment; read-out: EC50, inhibition of intracellular autophosphorylation of RET at tyrosine 1062, wildtype cells
T2 construct: expressed in transfected cells; host or cells: HEK293; the other entry of the earlier key: KIF5B (P33176, Kinesin-1 heavy chain)
T2 sequence (P07949 713-1063 limits assumed): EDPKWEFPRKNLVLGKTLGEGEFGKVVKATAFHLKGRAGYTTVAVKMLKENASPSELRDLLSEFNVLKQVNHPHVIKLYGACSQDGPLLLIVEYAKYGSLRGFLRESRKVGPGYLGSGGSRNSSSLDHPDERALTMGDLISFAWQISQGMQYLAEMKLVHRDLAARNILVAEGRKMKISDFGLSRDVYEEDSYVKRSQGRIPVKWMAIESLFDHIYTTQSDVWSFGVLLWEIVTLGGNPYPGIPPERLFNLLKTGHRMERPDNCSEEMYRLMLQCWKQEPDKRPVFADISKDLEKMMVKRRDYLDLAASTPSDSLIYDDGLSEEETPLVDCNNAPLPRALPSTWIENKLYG
Protocol: Compounds of formulas (I), (II), and (III) are screened for their ability to inhibit the intracellular autophosphorylation of RET at tyrosine 1062 as detected by In-Cell Western. HEK293 cells containing a doxycycline-inducible plasmid for inducible expression of KIF5B-RET WT and RET mutant forms V804M and G810S are seeded at 25,000 cells/well into black poly-D-lysine pre-coated 384-well plates (Corning, Catalog No. 356697). Expression of KIF5B-RET is induced with doxycycline at 1 μg/mL and cells are incubated at 37° C. overnight. Compounds are prepared in a threefold serial dilution in DMSO before further diluting 1:100 in media prior to the addition to the cells (0.1% final DMSO concentration). Compound treatment is performed for 1 hr at 37° C. followed by fixation of cells with 4% formaldehyde for 20 min at RT and cell permeabilisation with ice-cold MeOH for 10 min at RT. Cells are incubated with Intercept® blocking buffer (Li—COR, Catalogue No. 927-70010) for 1 hr at RT. Incubation with primary antibodies against human phospho-RET (Y1062) (R&D, Catalogue No. AF5009, 1/250 dilution) and human glyceraldehyde-3-phosphate dehydrogenase (clone 6C5, Merck, Catalog No. MAB374, 1/1000 dilution) are performed overnight at 4° C. Incubation with secondary antibodies IRDye® 800CW goat anti-rabbit IgG (Li—COR, Catalogue No. 926-32211, 1/1000 dilution) and IRDye® 680CW goat anti-mouse IgG (Li—COR, Catalogue No. 926-68070, 1/1000 dilution) are performed for 1 hr at RT. All antibody dilutions are done in Intercept® blocking buffer containing 0.05% Tween20. After washing cells with PBS-T (Cell Signaling technology, Catalogue No. 9809), the images are acquired on a Li—COR Odyssey LCx at 700 and 800 nm. Percent of DMSO control is calculated with 100% signal referring to control conditions containing no compound (0.4% DMSO only) and 0% signal represented by conditions containing control compound. The % of DMSO control values are fit to a 4 parameter logistic curve, and the determined EC50 value is defined as the estimated concentration of inhibitor at the inflexion point of the fitted curve.

IC50 [1] [nM] | EC50 [2] [nM] | Compound
< 100 | < 100 | CC(C(=O)Nc1cc(CC(C)(C)C)no1)c1ccc(-c2nn(C(C)C)c(N)c2C(N)=O)cc1 (single isomer, unassigned; isomer 1) [Example 1, 5-Amino-3-[4-(1-[[3-(2,2-dimethylpropyl)-1,2-oxazol-5-yl]carbamoyl]ethyl)phenyl]-1-isopropylpyrazole-4-carboxamide, Isomer 1]
< 100 | < 100 | CC(C(=O)Nc1cc(C(C)(C)C(F)(F)F)on1)c1ccc(-c2nn(C(C)C)c(N)c2C(N)=O)cc1 (single isomer, unassigned; isomer 1) [Example 81, 5-Amino-1-isopropyl-3-[4-(1-[[5-(1,1,1-trifluoro-2-methylpropan-2-yl)-1,2-oxazol-3-yl]carbamoyl]ethyl)phenyl]pyrazole-4-carboxamide, Isomer 1]
< 100 | < 100 | CC(C(=O)Nc1cc(C(C)(C)CC(F)(F)F)on1)c1ccc(-c2nn(C(C)C)c(N)c2C(N)=O)nc1 (single isomer, unassigned; isomer 2) [Example 68, 5-Amino-1-isopropyl-3-(5-(1-oxo-1-((5-(4,4,4-trifluoro-2-methylbutan-2-yl)isoxazol-3-yl)amino)propan-2-yl)pyridin-2-yl)-1H-pyrazole-4-carboxamide, Isomer 2]
< 100 | < 100 | CC(C(=O)Nc1cc(C(C)(C)C(F)(F)F)on1)c1ccc(-c2nn(C(C)C)c(N)c2C(N)=O)nc1 (single isomer, unassigned; isomer 2) [Example 64, 5-Amino-1-isopropyl-3-[5-(1-[[5-(1,1,1-trifluoro-yl)-1,2-oxazol-3-2-methylpropan-2-yl]carbamoyl]ethyl)pyridin-2-yl]pyrazole-4-carboxamide, Isomer 2]
< 100 | < 100 | CC(C(=O)Nc1cc(C(C)(C)C(C)(F)F)on1)c1ccc(-c2nn(C(C)C)c(N)c2C(N)=O)nc1 (single isomer, unassigned; isomer 2) [Example 70, 5-Amino-3-[5-(1-[[5-(3,3-difluoro-2-methylbutan-2-yl)-1,2-oxazol-3-yl]carbamoyl]ethyl)pyridin-2-yl]-1-isopropylpyrazole-4-carboxamide, Isomer 2]
< 100 | < 100 | CC(C(=O)Nc1cc(C(C)(C)C(C)(F)F)on1)c1ccc(-c2nn(C(C)C)c(N)c2C(N)=O)cc1 (single isomer, unassigned; isomer 2) [Example 76, 5-Amino-3-[4-(1-[[5-(3,3-difluoro-2-methylbutan-2-yl)-1,2-oxazol-3-yl]carbamoyl]ethyl)phenyl]-1-isopropylpyrazole-4-carboxamide, Isomer 2]
< 100 | < 100 | CC(C(=O)Nc1cc(C(C)(C)C(F)(F)F)no1)c1ccc(-c2nn(C(C)C)c(N)c2C(N)=O)cn1 (single isomer, unassigned; isomer 2) [Example 90, 5-Amino-1-isopropyl-3-[6-[1-methyl-2-oxo-2-[[3-(2,2,2-trifluoro-1,1-dimethyl-ethyl)isoxazol-5-yl]amino]ethyl]-3-pyridyl]pyrazole-4-carboxamide, Isomer 2]
< 100 | < 100 | CC(C(=O)Nc1cc(C(C)(C)C)sn1)c1ccc(-c2nn(C(C)C)c(N)c2C(N)=O)cc1 (single isomer, unassigned; isomer 2) [Example 80, 5-Amino-3-(4-[1-[(5-tert-butyl-1,2-thiazol-3-yl)carbamoyl]ethyl]phenyl)-1-isopropylpyrazole-4-carboxamide, isomer 2]
< 100 | < 100 | CCC(C)(C)c1cc(NC(=O)C(C)c2ccc(-c3nn(C(C)C)c(N)c3C(N)=O)cn2)on1 (single isomer, unassigned; isomer 2) [Example 84, 5-Amino-1-isopropyl-3-[6-[2-[[3-(1,1-dimethylpropyl)isoxazol-5-yl]amino]-1-methyl-2-oxo-ethyl]-3-pyridyl]pyrazole-4-carboxamide, Isomer 2]
< 100 | < 100 | CCC(C)(C)c1cc(NC(=O)C(C)c2ccc(-c3nn(C(C)C)c(N)c3C(N)=O)cc2)on1 (single isomer, unassigned; isomer 1) [Example 15, 5-Amino-1-isopropyl-3-[4-(1-[[3-(2-methylbutan-2-yl)-1,2-oxazol-5-yl]carbamoyl]ethyl)phenyl]pyrazole-4-carboxamide, Isomer 1]
< 100 | < 100 | CC(C(=O)Nc1cc(C(C)(C)C(F)(F)F)no1)c1ccc(-c2nn(C(C)C)c(N)c2C(N)=O)cc1 (single isomer, unassigned; isomer 1) [Example 17, 5-Amino-1-isopropyl-3-[4-(1-[[3-(1,1,1-trifluoro-2-methylpropan-2-yl)-1,2-oxazol-5-yl]carbamoyl]ethyl)phenyl]pyrazole-4-carboxamide, Isomer 1]
< 100 | < 100 | CC(C(=O)Nc1cc(-c2ccc(Cl)cc2Cl)no1)c1ccc(-c2nn(C(C)C)c(N)c2C(N)=O)cn1 (single isomer, unassigned; isomer 2) [Example 94, 5-Amino-1-isopropyl-3-[6-[2-[[3-(2,4-dichlorophenyl)isoxazol-5-yl]amino]-1-methyl-2-oxo-ethyl]-3-pyridyl]pyrazole-4-carboxamide, Isomer 2]
< 100 | < 100 | CC(C(=O)Nc1cc(C2(C)CC2)no1)c1ccc(-c2nn(C(C)C)c(N)c2C(N)=O)cc1 (single isomer, unassigned; isomer 1) [Example 35, 5-Amino-1-isopropyl-3-[4-(1-[[3-(1-methylcyclopropyl)-1,2-oxazol-5-yl]carbamoyl]ethyl)phenyl]pyrazole-4-carboxamide, Isomer 1]
